Assays:
[1] = test system: BCL2 mRNA in SAS cells; experiment: RT-qPCR BCL2 mRNA, SAS; assay type: cell-based; conditions: vs NC and CXB groups
Procedure: (§1) Equal amounts of RNA were reverse transcribed into cDNA using the Reverse Transcription Kit (AG11705, Accurate Biology, Guangzhou, China) following the manufacturer’s instructions. Quantitative PCR was performed on a QIAGEN Rotor-GeneQ system (9001862, QIAGEN, Hilden, Germany) with SYBR Green Pro Taq HS Premix II (AG11702, Accurate Biology, China).
(§2) The PCR protocol consisted of initial denaturation at 95 °C for 30 s, followed by 40 cycles of 95 °C for 5 s and 60 °C for 30 s. All reactions were performed in triplicate, with melting curve analysis confirming amplification specificity. The expression of the target genes was normalized to GAPDH, and fold changes were calculated in the manner of the 2^−ΔΔCT .

[2] = test system: MMP9 mRNA in SAS cells; experiment: RT-qPCR MMP9 mRNA, SAS; assay type: cell-based; conditions: vs control
Procedure: as §1, §2

[3] = test system: JAK/STAT signaling pathway in SAS cells; experiment: Western blot JAK/STAT signaling pathway, SAS; assay type: cell-based
Procedure: Cell lysates were centrifuged at 12,000× g for 10 min at 4 °C and then quantified using the BCA Protein Assay Kit (CW0014S, Cwbio, Taizhou, China). The lysate was denatured with sodium dodecyl sulfate–polyacrylamide gel electrophoresis (SDS-PAGE) sample loading buffer (P1040, Solarbio, Beijing, China), followed by SDS-PAGE and electrotransfer to polyvinylidene difluoride membranes (10600023, Cytiva, Marlborough, MA, USA). […] The bands were visualized by employing an ECL detection reagent (36208ES76, Yeasen, Shanghai, China) and independently quantified twice using ImageJ (v1.8.0.322) and ChemiScope Analysis (Version 2.1.6.0) software. […]

[4] = cited from earlier work
[5] = cited from earlier work; remark: listed apart in the source

| SMILES | BCL2 mRNA expression [1] | MMP9 mRNA level [2] | p-JAK1 level (Western blot) [3] | anti-inflammatory and analgesic activities [4] | oral toxicity [5] | total JAK1 (Western blot) ([3]; vs NC) |
| --- | --- | --- | --- | --- | --- | --- |
| Cc1cc(-c2ccco2)nn1S(=O)(=O)Oc1ccccc1Cl [Compound 5f] | significantly suppressed |  |  |  |  |  |
| Cc1ccc(-c2cc(C)n(S(=O)(=O)Oc3ccc(I)cc3)n2)cc1 [Compound 4b] | significantly suppressed | significant reduction | no significant change | excellent | low oral toxicity |  |
| Cc1ccc(-c2cc(C)n(S(=O)(=O)Oc3ccccc3Cl)n2)cc1 [Compound 4d] |  |  |  | excellent | low oral toxicity | reached statistical significance |
